In US20260234630A1, “Methods for Treating Multiple Myeloma” (Celgene Corporation, priority 2022, published 2026):

Experiments:
Type in all cases: cell-based
IRF4 and c-Myc = experiment: Western blot of IRF4 and c-Myc in MM cells; conditions: MM1.S, DF15 and U266 cells; 1 μM POM, 3 days
Method: FIG. 1A-1F. Down regulation of UHRF1 transcription by IMiDs correlates with drug sensitivity of multiple myeloma. (1A) Volcano plot of protein expression changes determined by mass spectrometry in H929 cells at 24 hr of treatment with CC-220 (0.1 μM) or DMSO control. X axis, Log2fold change (FC); Y axis, significance,-log 10 [p-value]. […] (1B) Volcano plot of gene expression changes determined by Affymetrix microarray in H929 cells treated with POM (1 μM) or DMSO for 24 hr. X axis, Log2fold change (FC); Y axis, significance,-log 10 [p-value], n=2 technical replicates). […] (1C) Western blot analysis protein expression of UHRF1, Ikaros, Aiolos and ZFP91 in H929 cells treated with 1 μM POM for indicated time. (1D) qRT-PCR analysis of UHRF1 gene expression levels in cells as in (1C). Error bars represent the SEM from duplicate measurements. (1E) Western blot analysis protein expression of UHRF1 and indicated proteins in MM cells treated with DMSO (−) or 1 μM POM (+) for 3 days. GAPDH serves as a loading control. […]
Cells were lysed with cell lysis buffer (50 mM TrisHCl pH7.4, 250 mM NaCl, 0.5% Triton X100, 10% glycerol) supplemented with protease inhibitor cocktail. […] The protein concentration was measured by a Bradford Protein Assay (Bio-Rad). […] Proteins of interested were detected incubation with primary antibodies listed below at 4° C. overnight. […]

Aiolos at UHRF1 promoter = experiment: ChIP-qPCR of Aiolos occupancy at UHRF1 gene; conditions: H929 cells, 1 μM POM, 24 hr
Method: (§1) FIG. 2A-2E. UHRF1 expression is positively regulated by Ikaros and Aiolos in IMiDs sensitive MM cells. (2A) Western blot analysis protein expression of UHRF1, Ikaros, Aiolos, ZFP91 and Cereblon expression in control [shLuciferase (shLuc)] and cereblon knockdown (shCRBN) H929 cells treated with DMSO and 1 μM POM for 3 days. GAPDH, loading control. Arrow head, UHRF1. (2B) qRT-PCR analysis of UHRF1 gene expression levels in cells as in (2A). Data was normalized to ACTB. Error bars represent the SEM of technical duplicates. *** P<0.001 (Two-tailed unpaired Student's t-test). […]
(§2) ChIP-qPCR was performed using ChIP-IT Express Enzymatic kit (Active Motif) according to the manufacture manual with some modifications. […] DNA was purified using a PCR purification kit (Qiagen) and analyzed by qPCR using the Power SYBR Green PCR Master Mix.
(§3) Procedures afterward were performed according to the manufacture manual. Eluted DNA was purified using a PCR purification kit (Qiagen) and analyzed by quantitative real-time PCR on the Viia 7 Real Time PCR System using the Power SYBR Green PCR master mix (Applied Biosystems). Statistical differences were calculated using a […] unpaired Student's t-test.

H3K27ac at UHRF1 TSS = experiment: ChIP-qPCR of H3K27ac occupancy at UHRF1 gene; conditions: H929 and MM1.S cells, 1 μM POM, 24 hr
Method: as §1, §2, §3

Nc1cccc2c1C(=O)N(C1CCC(=O)NC1=O)C2=O (stereo not drawn) [POM, pomalidomide]
IRF4 and c-Myc expression (IRF4 and c-Myc): downregulated | UHRF1 promoter occupancy of Aiolos (Aiolos at UHRF1 promoter): drastically reduced | H3K27ac level at the UHRF1 TSS (H3K27ac at UHRF1 TSS): drastically reduced
